ChEMBL document CHEMBL5143572, “Synthesis and evaluation of new potential anti-pseudo-allergic agents” (Bioorg Med Chem Lett, 2022)
Active and inactive are the calls of the source. The rule behind the calls is not given here.

Assays:
LAD2 [1] = assay: Antiallergic activity in human LAD2 cells assessed as inhibition of C48/80-induced beta-hexosaminidase release; format: functional, cell-based; conditions: dose 0.1-100 µM
LAD2 [2] = assay: Cytotoxicity against human LAD2 cells at 0.1 to 100 uM measured after 24 hrs; format: toxicity, cell-based; conditions: lad2, 24 h, dose 0.1-100 µM
[3] = biological target: T1, Mas-related G-protein coupled receptor member X2 (Homo sapiens) (UniProt Q96LB1); assay: Antagonist activity at MRGPRX2 (unknown origin) expressed in HEK293 cells assessed as inhibition of C48/80-induced Ca2+- mobilization; format: functional, cell-based; conditions: filed as antagonist, dose 0.1-100 µM, DDE = dose-dependent effect
T1 sequence (whole entry): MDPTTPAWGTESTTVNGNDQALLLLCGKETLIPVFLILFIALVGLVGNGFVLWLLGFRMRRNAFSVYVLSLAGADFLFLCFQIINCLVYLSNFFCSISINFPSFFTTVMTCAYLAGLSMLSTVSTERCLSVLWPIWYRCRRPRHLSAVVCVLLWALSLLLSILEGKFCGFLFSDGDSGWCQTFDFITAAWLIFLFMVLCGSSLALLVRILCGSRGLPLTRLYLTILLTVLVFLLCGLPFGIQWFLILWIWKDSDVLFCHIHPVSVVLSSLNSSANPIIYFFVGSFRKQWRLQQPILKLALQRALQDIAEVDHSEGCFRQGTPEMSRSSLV

LAD2 [4] = assay: Antiallergic activity in human LAD2 cells assessed as inhibition of C48/80-induced histamine release; format: functional, cell-based; conditions: dose 0.1-100 µM, DDE = dose-dependent effect

Structure (SMILES) | inhibition (LAD2 [1]) | Activity (LAD2 [2]) | inhibition (LAD2 [1]; DDE = dose-dependent effect) | inhibition [3] | inhibition (LAD2 [4])
O=C(Nc1ccc(Sc2ccc3c(=O)[nH]cnc3c2)cc1)Nc1ccc(Cl)c(C(F)(F)F)c1 | Active |  |  |  | 
FC(F)(F)c1ccc(/C=C/c2nc(COc3ccc(CCCCn4ccnn4)cc3)co2)cc1 | Active |  |  |  | 
O=C(Nc1ccc(C(F)(F)F)cc1)Nc1nc(COc2ccc(CCCCn3ccnn3)cc2)co1 |  | Non-Toxic | Dde | Dde | Dde
O=C(Nc1ccc(Cl)c(C(F)(F)F)c1)Nc1nc(COc2ccc(CCCCn3ccnn3)cc2)co1 |  | Non-Toxic | Dde | Dde | Dde
